This note sets out measurements from patent US20120088809A1, “1-(2-ALKYL-2,3-DIHYDRO-BENZOFURAN-4-YL)-PYRROLIDIN-3-YLAMINE ACYL COMPOUNDS” (priority 2009, published 2012).

The target in data set [1] is T1, recombinant human-MT1 receptor (Homo sapiens, UniProt P48039).
T1 construct: expressed in transfected cells; host or cells: unnamed cell line co-expressing mitochondrial apoaequorin and Gα16
As to the kind of experiment: In vitro MT1 screening (AequoScreen aequorin luminescence, agonism). It is filed as cell-based. To be noted: percentage of activity relative to the reference agonist at the EC100 concentration. The text has this:
To proceed with compound screening over MT1 receptor, a cell line characterised by a stable overexpression of recombinant human-MT1 receptor was used. This line co-expresses mitochondrial apoaequorin and subunit Gα16.
Subunit Gα16 belongs to GPCR superfamily, in which intracellular signal transduction is produced via phospholipase (PLC). Activation of PLC produces an increment of inositol-triphosphate levels and intracellular calcium levels. This increment in calcium levels is, therefore, independent and full compatible with the signal transduction of MT1 receptor.
After binding to calcium, aequorin carries out the oxidation of colenterazine to colenteramide, a luminescent reaction.
Assay protocol for agonist screening consists in an overnight incubation of cells and colenterazine, being performed by an AequoScreen™ system instrument, PerkinElmer, USA. After that this mixture was injected over a plate that contains the solution of the compounds to screen and luminescence was immediately read. Only in case of antagonism screening, after 15-30 min of the first injection the reference agonist was added in the same well, and then luminescence was measured.
Agonist activity was calculated as percentage of activity relative to the reference agonist at the EC100 concentration.

The nature of data set [2]: Plasma drug levels after oral administration. As to conditions: male Sprague-Dawley rats; for Ratio 15/60 (plasma level 15 min / 60 min): oral 3 mg/kg; for concentration at 15 min / concentration at 60 min: rat, plasma; for concentration at 15 min: 15 min after oral administration of 3 mg/kg; for concentration at 60 min: 60 min after oral administration of 3 mg/kg. The format is in vivo. The method, then: The compounds of formula I show the surprising advantage of being maintained at more sustained plasma levels and thus being long acting. This can be evidenced, for instance, by measuring the plasma levels after oral administration to rats at 15 and 60 min after oral administration, resulting in lower ratio values for the compounds of the present invention. Thus the compounds of formula I, characterized in that R2 is an alkyl radical show more sustained plasma levels than prior art compounds (EP1189900B1), wherein R2 is hydrogen. […] Consequently, the present compounds allow for a more efficient therapy: the slow elimination facilitates maintaining a stable plasma concentration at a non-toxic, effective level and the prolonged effect may be expected to result in better compliance of the subject to be treated with the prescribed medication.

T1 sequence (P48039 whole entry): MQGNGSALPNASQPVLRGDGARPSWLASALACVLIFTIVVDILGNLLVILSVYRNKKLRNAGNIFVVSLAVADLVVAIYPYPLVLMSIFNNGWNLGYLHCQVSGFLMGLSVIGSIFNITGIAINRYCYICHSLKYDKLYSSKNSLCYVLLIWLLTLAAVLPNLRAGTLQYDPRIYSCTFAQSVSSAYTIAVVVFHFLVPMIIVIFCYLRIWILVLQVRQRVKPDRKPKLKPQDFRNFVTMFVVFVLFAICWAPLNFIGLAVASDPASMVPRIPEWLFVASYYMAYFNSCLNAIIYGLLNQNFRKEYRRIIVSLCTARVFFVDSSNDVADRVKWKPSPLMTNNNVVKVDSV

As to `CC(C)CC(=O)N[C@H]1CCN(c2cccc3c2CC(C)O3)C1` (stereo partly drawn) [Example 18, 3-methyl-N-((3S)-1-(2-methyl-2,3-dihydrobenzofuran-4-yl)pyrrolidin-3-yl)butanamide], the activation at 0.001 µM in data set [1] (1 nM compound) is 28%. In addition, the activation at 0.1 µM in data set [1] (100 nM compound) turned out to be 82%.

As to `CC1Cc2c(cccc2N2CC[C@H](NC(=O)C(C)C)C2)O1` (stereo partly drawn) [Example 16, N-((3S)-1-(2-methyl-2,3-dihydrobenzofuran-4-yl)pyrrolidin-3-yl)isobutyramide], the activation at 0.001 µM in data set [1] (1 nM compound) is 6%. Besides, the activation at 0.1 µM in data set [1] (100 nM compound) is 76%.

For `CC1Cc2c(N3CC[C@H](NC(=O)C(C)F)C3)ccc(F)c2O1` (stereo partly drawn) [Example 4, 2-fluoro-N-((3S)-1-(7-fluoro-2-methyl-2,3-dihydrobenzofuran-4-yl)pyrrolidin-3-yl)propanamide], the activation at 0.001 µM in data set [1] (1 nM compound) came out at 44%. In addition, the activation at 0.1 µM in data set [1] (100 nM compound) turned out to be 98%.

As to `CCC(=O)N[C@H]1CCN(c2cccc3c2CC(C)O3)C1` (stereo partly drawn) [Example 15, N-((3S)-1-(2-methyl-2,3-dihydrobenzofuran-4-yl)pyrrolidin-3-yl)propionamide], the activation at 0.001 µM in data set [1] (1 nM compound) worked out at 18%. The activation at 0.1 µM in data set [1] (100 nM compound) is 92%.

On to `CCCCC(=O)N[C@H]1CCN(c2ccc(F)c3c2CC(C)O3)C1` (stereo partly drawn) [Example 8, N-((3S)-1-(7-fluoro-2-methyl-2,3-dihydrobenzofuran-4-yl)pyrrolidin-3-yl)pentanamide], for which the activation at 0.001 µM in data set [1] (1 nM compound) was found to be 31%. Also, the activation at 0.1 µM in data set [1] (100 nM compound) was 89%.

For the compound `CC(=O)N[C@H]1CCN(c2cccc3c2CC(C)O3)C1` (stereo partly drawn) [Example 13, N-((3S)-1-(2-methyl-2,3-dihydrobenzofuran-4-yl)pyrrolidin-3-yl)acetamide], in data set [1] (1 nM compound), the activation at 0.001 µM worked out at 17%. Further, in data set [1] (100 nM compound), the activation at 0.1 µM worked out at 91%. Further, in data set [2], the “Ratio 15/60 (plasma level 15 min / 60 min)” value is reported as 2.29, the concentration at 15 min turned out to be 433 ng/mL and the concentration at 60 min amounted to 189 ng/mL.

Take `CC1Cc2c(cccc2N2CC[C@H](NC(=O)C(F)(F)F)C2)O1` (stereo partly drawn) [Example 14, 2,2,2-trifluoro-N-((3S)-1-(2-methyl-2,3-dihydrobenzofuran-4-yl)pyrrolidin-3-yl)acetamide]: in data set [1] (1 nM compound), the activation at 0.001 µM was 8%. Besides, in data set [1] (100 nM compound), the activation at 0.1 µM was determined as 79%.

For `CCC(=O)N[C@H]1CCN(c2ccc(F)c3c2CC(C)O3)C1` (stereo partly drawn) [Example 3, N-((3S)-1-(7-fluoro-2-methyl-2,3-dihydrobenzofuran-4-yl)pyrrolidin-3-yl)propionamide], the activation at 0.001 µM in data set [1] (1 nM compound) is 30%. Further, the activation at 0.1 µM in data set [1] (100 nM compound) worked out at 88%. Moreover, in data set [2], the “Ratio 15/60 (plasma level 15 min / 60 min)” value amounted to 1.74, the concentration at 15 min worked out at 113 ng/mL and the concentration at 60 min worked out at 64.9 ng/mL.

For `CC1Cc2c(N3CC[C@H](NC(=O)C4CC4)C3)ccc(F)c2O1` (stereo partly drawn) [Example 7, N-((3S)-1-(7-fluoro-2-methyl-2,3-dihydrobenzofuran-4-yl)pyrrolidin-3-yl)cyclopropanecarboxamide], in data set [1] (1 nM compound), the activation at 0.001 µM was 22%. Besides, the activation at 0.1 µM in data set [1] (100 nM compound) was determined as 80%. Moreover, in data set [2], the “Ratio 15/60 (plasma level 15 min / 60 min)” value came to 0.58, the concentration at 15 min amounted to 5.1 ng/mL and the concentration at 60 min worked out at 8.8 ng/mL.

As to `CCC(=O)N[C@H]1CCN(c2cccc3c2CC(CC)O3)C1` (stereo partly drawn) [Example 20, N-((3S)-1-(2-ethyl-2,3-dihydrobenzofuran-4-yl)pyrrolidin-3-yl)propionamide], the activation at 0.001 µM in data set [1] (1 nM compound) was 26%. The activation at 0.1 µM in data set [1] (100 nM compound) stood at 88%. Further, in data set [2], the “Ratio 15/60 (plasma level 15 min / 60 min)” value worked out at 1.80, the concentration at 15 min stood at 106 ng/mL and the concentration at 60 min came to 59 ng/mL.

For `CCCC(=O)N[C@H]1CCN(c2ccc(F)c3c2CC(C)O3)C1` (stereo partly drawn) [Example 5, N-((3S)-1-(7-fluoro-2-methyl-2,3-dihydrobenzofuran-4-yl)pyrrolidin-3-yl)butyramide], in data set [1] (1 nM compound), the activation at 0.001 µM was 32%. The activation at 0.1 µM in data set [1] (100 nM compound) stood at 91%.

`CC(=O)N[C@H]1CCN(c2ccc(F)c3c2CC(C)O3)C1` (stereo partly drawn) [Example 1, N-((3S)-1-(7-fluoro-2-methyl-2,3-dihydrobenzofuran-4-yl)pyrrolidin-3-yl)acetamide]: the activation at 0.001 µM in data set [1] (1 nM compound) worked out at 19%. The activation at 0.1 µM in data set [1] (100 nM compound) worked out at 73%. For the same compound, in data set [2], the “Ratio 15/60 (plasma level 15 min / 60 min)” value was determined as 1.03, the concentration at 15 min amounted to 56.8 ng/mL and the concentration at 60 min came out at 55.4 ng/mL.

With `COc1ccc2[nH]cc(CCNC(C)=O)c2c1` [Melatonin, reference compound], in data set [1] (1 nM compound), the “% MT1 at 1 nM (agonism percentage)” value was 42%. Moreover, the “% MT1 at 100 nM (agonism percentage)” value in data set [1] (100 nM compound) came to 101%. In data set [2], the “Ratio 15/60 (plasma level 15 min / 60 min)” value is given as 3.49, the concentration at 15 min turned out to be 255 ng/mL and the concentration at 60 min turned out to be 73 ng/mL.

For the compound `CCOC(=O)N[C@H]1CCN(c2ccc(F)c3c2CC(C)O3)C1` (stereo partly drawn) [Example 11, Ethyl (3S)-1-(7-fluoro-2-methyl-2,3-dihydrobenzofuran-4-yl)pyrrolidin-3-ylcarbamate], in data set [1] (1 nM compound), the activation at 0.001 µM came out at 28%. Also, the activation at 0.1 µM in data set [1] (100 nM compound) amounted to 73%.

Consider `CCC(C)C(=O)N[C@H]1CCN(c2ccc(F)c3c2CC(C)O3)C1` (stereo partly drawn) [Example 9, N-((3S)-1-(7-fluoro-2-methyl-2,3-dihydrobenzofuran-4-yl)pyrrolidin-3-yl)-2-methylbutanamide], for which the activation at 0.001 µM in data set [1] (1 nM compound) was 17%. The activation at 0.1 µM in data set [1] (100 nM compound) turned out to be 70%.

As to `CC1Cc2c(N3CC[C@H](NC(=O)C(C)C)C3)ccc(F)c2O1` (stereo partly drawn) [Example 6, N-((3S)-1-(7-fluoro-2-methyl-2,3-dihydrobenzofuran-4-yl)pyrrolidin-3-yl)isobutyramide], the activation at 0.001 µM in data set [1] (1 nM compound) came out at 24%. In addition, the activation at 0.1 µM in data set [1] (100 nM compound) turned out to be 75%.

On to `CC1Cc2c(cccc2N2CC[C@H](NC(=O)C3CC3)C2)O1` (stereo partly drawn) [Example 17, N-((3S)-1-(2-methyl-2,3-dihydrobenzofuran-4-yl)pyrrolidin-3-yl)cyclopropanecarboxamide], for which the activation at 0.001 µM in data set [1] (1 nM compound) was 6%. In addition, in data set [1] (100 nM compound), the activation at 0.1 µM is 79%. Besides, in data set [2], the “Ratio 15/60 (plasma level 15 min / 60 min)” value was 0.47, the concentration at 15 min was 17 ng/mL and the concentration at 60 min came out at 36 ng/mL.

Take `CCNC(=O)N[C@H]1CCN(c2ccc(F)c3c2CC(C)O3)C1` (stereo partly drawn) [Example 12, 1-Ethyl-3-((3S)-1-(7-fluoro-2-methyl-2,3-dihydrobenzofuran-4-yl)pyrrolidin-3-yl)urea]: in data set [1] (1 nM compound), the activation at 0.001 µM was found to be 18%. Besides, the activation at 0.1 µM in data set [1] (100 nM compound) is 90%.

On to `CCCC1Cc2c(cccc2N2CC[C@H](NC(=O)CC)C2)O1` (stereo partly drawn) [Example 21, N-((3S)-1-(2-propyl-2,3-dihydrobenzofuran-4-yl)pyrrolidin-3-yl)propionamide], for which the activation at 0.001 µM in data set [1] (1 nM compound) was 15%. Besides, the activation at 0.1 µM in data set [1] (100 nM compound) was found to be 78%. Besides, in data set [2], the “Ratio 15/60 (plasma level 15 min / 60 min)” value is 1.59, the concentration at 15 min is 59 ng/mL and the concentration at 60 min was 37 ng/mL.

On to `CC1Cc2c(N3CC[C@H](NC(=O)C(F)(F)F)C3)ccc(F)c2O1` (stereo partly drawn) [Example 2, 2,2,2-trifluoro-N-((3S)-1-(7-fluoro-2-methyl-2,3-dihydrobenzofuran-4-yl)pyrrolidin-3-yl)acetamide], for which the activation at 0.001 µM in data set [1] (1 nM compound) was 32%. Moreover, the activation at 0.1 µM in data set [1] (100 nM compound) was determined as 79%.

As to `CCC(=O)NCC[C@@H]1CCc2ccc3c(c21)CCO3` [Ramelteon, N-[2-[(8S)-1,6,7,8-tetrahydro-2H-indeno[5,4-b]furan-8-yl)ethyl]propionamide, reference compound], in data set [1] (1 nM compound), the activation at 0.001 µM worked out at 45%. For the same compound, the activation at 0.1 µM in data set [1] (100 nM compound) amounted to 118%. Further, in data set [2], the “Ratio 15/60 (plasma level 15 min / 60 min)” value is 3.94, the concentration at 15 min was 280 ng/mL and the concentration at 60 min came to 71 ng/mL.

`COC(=O)N[C@H]1CCN(c2ccc(F)c3c2CC(C)O3)C1` (stereo partly drawn) [Example 10, Methyl (3S)-1-(7-fluoro-2-methyl-2,3-dihydrobenzofuran-4-yl)pyrrolidin-3-ylcarbamate]: the activation at 0.001 µM in data set [1] (1 nM compound) came to 36%. For the same compound, the activation at 0.1 µM in data set [1] (100 nM compound) came out at 89%.

For the compound `CCC1Cc2c(cccc2N2CC[C@H](NC(C)=O)C2)O1` (stereo partly drawn) [Example 19, N-((3S)-1-(2-ethyl-2,3-dihydrobenzofuran-4-yl)pyrrolidin-3-yl)acetamide], the activation at 0.001 µM in data set [1] (1 nM compound) came out at 23%. For the same compound, the activation at 0.1 µM in data set [1] (100 nM compound) worked out at 81%.
